Results taken from PMC8745332, “Synthesis, Molecular Docking and Biological Characterization of Pyrazine Linked 2-Aminobenzamides as New Class I Selective Histone Deacetylase (HDAC) Inhibitors with Anti-Leukemic Activity” (International Journal of Molecular Sciences, 2021).
Where two headings read alike, the source gives them in different places.

Assays:
human HDAC1 = target: T1, human HDAC1 (Homo sapiens, UniProt Q13547); assay: In vitro HDAC1 inhibition assay, fluorogenic p53 peptide Ac-RHKK(Acetyl)-AMC; format: biochemical; conditions: 10 nM HDAC1, 20 µM substrate, 90 min, 37 °C
T1 construct: purchased ENZO Life Sciences AG (Lausen, CH)
Procedure: (§1) Recombinant human HDAC1, HDAC2, and HDAC3/NCOR1 were purchased from ENZO Life Sciences AG (Lausen, CH). Recombinant human HDAC 4, HDAC5, HDAC7, HDAC9 and HDAC11 were produced by Barinka lab in Prague, as described before. Recombinant human HDAC8 was produced by Romier et al. (IGBMC, Univ. Strasbourg), as described in [55].
(§2) The in vitro testing on recombinant HDACs 1-3 were performed with a fluorogenic peptide derived from p53 (Ac-RHKK(Acetyl)-AMC). The measurements were performed in an assay buffer (50 mM Hepes, 150 mM NaCl, 5 mM MgCl2, 1 mM TCEP and 0.2 mg/mL BSA, pH 7.4 adjusted with NaOH) at 37 °C. Inhibitors at different concentrations were incubated with 10 nM HDAC1, 3 nM HDAC2 or 3 nM HDAC3 (final concentration) for at least 5 min. The reaction was started with the addition of the fluorogenic substrate (20 µM final concentration) and incubated for 30 min for HDAC2 and HDAC3 and 90 min for HDAC1. The reaction was stopped with a solution of 1 mg/mL trypsin and 20 µM SAHA in 1 mM HCl and incubated for 1 h at 37 °C. […] The received fluorescence intensities were normalized with uninhibited reaction as 100% and the reaction without enzyme as 0%. A nonlinear regression analysis was done to determine the IC50 value.

human HDAC2 = target: T2, human HDAC2 (Homo sapiens, UniProt Q92769); assay: In vitro HDAC2 inhibition assay, fluorogenic p53 peptide Ac-RHKK(Acetyl)-AMC; format: biochemical; conditions: 3 nM HDAC2, 20 µM substrate, 30 min, 37 °C
T2 construct: purchased ENZO Life Sciences AG (Lausen, CH)
Procedure: as §1, §2

human HDAC3/NCOR1 = target: T3, human HDAC3/NCOR1 (Homo sapiens, UniProt O15379); assay: In vitro HDAC3 inhibition assay, fluorogenic p53 peptide Ac-RHKK(Acetyl)-AMC; format: biochemical
T3 construct: purchased ENZO Life Sciences AG (Lausen, CH)
Procedure: as §1, §2

human HDAC4 = target: T4, human HDAC4 (Homo sapiens, UniProt P56524); assay: HDAC4 dose response, substrate Abz-SRGGK(thio-TFA)FFRR-NH2; format: biochemical
T4 construct: made in house
Procedure: as §1
(§3) The determination of dose response curves for HDAC4, 5, 7 and 9 was performed as previously described with compound 4 as substrate (Abz-SRGGK(thio-TFA)FFRR-NH2). The substrate concentration was 50 µM and the enzyme concentration was 10 nM for HDAC4 and HDAC5, 5 nM for HDAC7 and 20 nM for HDAC9. HDAC11 inhibition assay was performed as described before. The fluorescence intensity was recorded with an Envision 2104 Multilabel Plate Reader (PerkinElmer, Waltham, MA) with an excitation wavelength of 330 ± 75 nm and an emission wavelength of 430 ± 8 nm.

human HDAC5 = target: T5, human HDAC5 (Homo sapiens, UniProt Q9UQL6); assay: HDAC5 dose response, substrate Abz-SRGGK(thio-TFA)FFRR-NH2; format: biochemical
T5 construct: made in house
Procedure: as §1, §3

human HDAC9 = target: T6, human HDAC9 (Homo sapiens, UniProt Q9UKV0); assay: HDAC9 dose response, substrate Abz-SRGGK(thio-TFA)FFRR-NH2; format: biochemical
T6 construct: made in house
Procedure: as §1, §3

human HDAC11 = target: T7, human HDAC11 (Homo sapiens, UniProt Q96DB2); assay: HDAC11 inhibition assay; format: biochemical
T7 construct: made in house
T7 sequence (Q96DB2 1-347): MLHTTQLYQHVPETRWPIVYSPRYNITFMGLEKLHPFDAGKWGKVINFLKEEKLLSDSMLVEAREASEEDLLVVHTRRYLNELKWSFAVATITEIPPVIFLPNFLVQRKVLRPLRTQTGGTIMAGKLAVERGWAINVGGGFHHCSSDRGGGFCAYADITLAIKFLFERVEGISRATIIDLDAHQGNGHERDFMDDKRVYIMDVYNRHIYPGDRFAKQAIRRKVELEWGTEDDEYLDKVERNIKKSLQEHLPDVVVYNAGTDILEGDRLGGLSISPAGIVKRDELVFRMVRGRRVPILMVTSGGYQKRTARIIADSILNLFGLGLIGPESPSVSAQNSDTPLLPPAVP
Procedure: as §1, §3

MV4-11 cells = assay: Apoptosis in MV4-11 cells, annexin-V-FITC/PI flow cytometry; format: cell-based, human; conditions: for induction of early and late apoptosis: 0.5 µM, 48 h; for IC50: Homo sapiens
Procedure: We measured the induction of early (increased exposure of phosphatidylserine on the cell surface and therefore positive staining for annexin-V-FITC) and late apoptosis (positivity for annexin-V and accumulation of propidium iodide, PI) by flow cytometry.
All leukemic cells were kept in RPMI-1640 medium supplemented with 10% FBS and 1%penicillin/streptomycin (Sigma-Aldrich, Taufkirchen, Germany) under standard culture conditions at 37 °C and a 5% CO2 humidified atmosphere. Cells were authenticated as mentioned by us.

in vitro = conditions: human, HEK293 cells
Procedure: The cells were incubated for 48 h with the HDACi at a concentration of 50 µM, and cell viability was determined by the Alamar Blue assay.
To determine the cytotoxicity of the developed compounds on the human epithelial kidney, cell line HEK293 was used. HEK293 cells (DSMZ Braunschweig, ACC305) were incubated at 37 °C in a humidified incubator with 5% CO2 in Dulbecco’s Modified Eagle Medium (DMEM) supplemented with 10% FCS and 5 mM glutamine. Cells were seeded out at 1.5 x 10^3 cells per well in a 96-well cell culture plate (TPP, Switzerland). The compounds to be tested were added immediately to the medium at 50 µM. After 24 h, Alamar Blue reagent (Invitrogen, CA) was added according to the manufacturer’s instructions and incubated again for 21 h before samples were analyzed. Detection of viable cells which convert the resazurine reagent into the highly fluorescent resorufin was performed by using a FLUOstarOPTIMA microplate reader (BMG Labtec) with the following filter set: Ex 530 nm/Em 590 nm. Measurements were performed in triplicate and data are means with standard deviation <12%.

T1 sequence (Q13547 whole entry): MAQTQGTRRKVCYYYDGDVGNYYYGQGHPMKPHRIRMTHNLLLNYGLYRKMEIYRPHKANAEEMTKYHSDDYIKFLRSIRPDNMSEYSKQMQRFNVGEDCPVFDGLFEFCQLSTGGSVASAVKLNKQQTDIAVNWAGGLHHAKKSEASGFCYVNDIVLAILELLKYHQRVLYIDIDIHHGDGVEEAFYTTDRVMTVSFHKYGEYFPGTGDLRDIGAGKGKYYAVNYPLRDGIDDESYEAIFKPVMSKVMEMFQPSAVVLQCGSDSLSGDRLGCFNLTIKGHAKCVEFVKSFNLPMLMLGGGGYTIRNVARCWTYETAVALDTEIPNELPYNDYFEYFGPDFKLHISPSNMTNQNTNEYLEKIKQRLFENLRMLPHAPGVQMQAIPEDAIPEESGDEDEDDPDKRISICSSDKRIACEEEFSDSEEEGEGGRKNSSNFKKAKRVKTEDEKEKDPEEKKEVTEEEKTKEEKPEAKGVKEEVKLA
T2 sequence (Q92769 whole entry): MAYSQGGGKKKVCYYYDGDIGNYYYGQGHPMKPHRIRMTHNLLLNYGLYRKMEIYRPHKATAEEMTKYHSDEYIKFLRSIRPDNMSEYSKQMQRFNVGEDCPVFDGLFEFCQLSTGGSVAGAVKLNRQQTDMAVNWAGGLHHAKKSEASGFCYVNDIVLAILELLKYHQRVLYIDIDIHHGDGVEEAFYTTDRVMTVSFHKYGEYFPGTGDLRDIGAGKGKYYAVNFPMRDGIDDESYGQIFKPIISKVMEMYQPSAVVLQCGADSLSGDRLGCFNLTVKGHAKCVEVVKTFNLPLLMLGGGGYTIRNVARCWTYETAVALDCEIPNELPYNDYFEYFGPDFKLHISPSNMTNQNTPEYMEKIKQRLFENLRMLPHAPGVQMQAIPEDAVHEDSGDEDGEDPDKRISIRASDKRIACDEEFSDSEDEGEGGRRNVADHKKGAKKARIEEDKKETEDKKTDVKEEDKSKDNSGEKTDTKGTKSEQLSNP
T4 sequence (P56524 whole entry): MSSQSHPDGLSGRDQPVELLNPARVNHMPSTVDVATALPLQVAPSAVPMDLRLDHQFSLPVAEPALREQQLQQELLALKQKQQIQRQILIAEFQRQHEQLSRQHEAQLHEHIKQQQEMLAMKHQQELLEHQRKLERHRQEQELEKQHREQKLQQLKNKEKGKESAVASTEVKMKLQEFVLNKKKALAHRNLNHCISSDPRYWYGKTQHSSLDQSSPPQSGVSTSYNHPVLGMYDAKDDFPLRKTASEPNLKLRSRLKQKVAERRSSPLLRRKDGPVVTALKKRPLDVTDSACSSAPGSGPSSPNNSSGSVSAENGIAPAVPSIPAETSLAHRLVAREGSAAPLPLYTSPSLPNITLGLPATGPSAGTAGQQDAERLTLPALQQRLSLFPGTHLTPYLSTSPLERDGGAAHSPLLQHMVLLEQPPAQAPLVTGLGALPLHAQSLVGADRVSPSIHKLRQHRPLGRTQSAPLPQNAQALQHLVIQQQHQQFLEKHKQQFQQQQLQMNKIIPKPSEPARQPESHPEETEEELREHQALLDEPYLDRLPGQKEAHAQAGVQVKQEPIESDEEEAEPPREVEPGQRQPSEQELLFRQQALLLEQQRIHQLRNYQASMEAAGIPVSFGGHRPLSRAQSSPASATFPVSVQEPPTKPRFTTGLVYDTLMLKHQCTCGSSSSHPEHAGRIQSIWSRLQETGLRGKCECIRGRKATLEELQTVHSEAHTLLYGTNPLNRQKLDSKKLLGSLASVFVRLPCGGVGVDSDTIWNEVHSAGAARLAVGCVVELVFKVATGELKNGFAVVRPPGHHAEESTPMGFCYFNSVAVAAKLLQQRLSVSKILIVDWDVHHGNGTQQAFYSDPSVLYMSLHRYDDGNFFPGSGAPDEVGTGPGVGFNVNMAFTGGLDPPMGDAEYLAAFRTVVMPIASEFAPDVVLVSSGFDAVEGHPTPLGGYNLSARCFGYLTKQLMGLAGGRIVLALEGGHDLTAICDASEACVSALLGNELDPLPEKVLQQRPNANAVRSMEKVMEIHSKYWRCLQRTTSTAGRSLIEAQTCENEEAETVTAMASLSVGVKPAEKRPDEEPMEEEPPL
T3 sequence (O15379 whole entry): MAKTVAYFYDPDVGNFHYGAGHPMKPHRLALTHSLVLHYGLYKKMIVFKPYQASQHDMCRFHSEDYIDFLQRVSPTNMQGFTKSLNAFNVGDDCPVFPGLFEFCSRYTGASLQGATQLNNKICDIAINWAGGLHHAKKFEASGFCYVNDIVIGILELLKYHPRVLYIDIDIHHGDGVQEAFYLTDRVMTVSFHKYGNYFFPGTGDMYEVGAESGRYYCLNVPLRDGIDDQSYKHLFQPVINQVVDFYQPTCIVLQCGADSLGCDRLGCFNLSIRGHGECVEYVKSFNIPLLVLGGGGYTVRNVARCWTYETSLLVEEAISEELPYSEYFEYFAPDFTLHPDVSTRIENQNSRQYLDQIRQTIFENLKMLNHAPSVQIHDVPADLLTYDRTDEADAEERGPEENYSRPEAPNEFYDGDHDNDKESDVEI
T3 sequence (O75376 395-489 partner limits assumed): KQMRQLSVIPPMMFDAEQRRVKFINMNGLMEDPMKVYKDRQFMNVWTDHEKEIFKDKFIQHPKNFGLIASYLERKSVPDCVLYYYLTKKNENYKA
T5 sequence (Q9UQL6 whole entry): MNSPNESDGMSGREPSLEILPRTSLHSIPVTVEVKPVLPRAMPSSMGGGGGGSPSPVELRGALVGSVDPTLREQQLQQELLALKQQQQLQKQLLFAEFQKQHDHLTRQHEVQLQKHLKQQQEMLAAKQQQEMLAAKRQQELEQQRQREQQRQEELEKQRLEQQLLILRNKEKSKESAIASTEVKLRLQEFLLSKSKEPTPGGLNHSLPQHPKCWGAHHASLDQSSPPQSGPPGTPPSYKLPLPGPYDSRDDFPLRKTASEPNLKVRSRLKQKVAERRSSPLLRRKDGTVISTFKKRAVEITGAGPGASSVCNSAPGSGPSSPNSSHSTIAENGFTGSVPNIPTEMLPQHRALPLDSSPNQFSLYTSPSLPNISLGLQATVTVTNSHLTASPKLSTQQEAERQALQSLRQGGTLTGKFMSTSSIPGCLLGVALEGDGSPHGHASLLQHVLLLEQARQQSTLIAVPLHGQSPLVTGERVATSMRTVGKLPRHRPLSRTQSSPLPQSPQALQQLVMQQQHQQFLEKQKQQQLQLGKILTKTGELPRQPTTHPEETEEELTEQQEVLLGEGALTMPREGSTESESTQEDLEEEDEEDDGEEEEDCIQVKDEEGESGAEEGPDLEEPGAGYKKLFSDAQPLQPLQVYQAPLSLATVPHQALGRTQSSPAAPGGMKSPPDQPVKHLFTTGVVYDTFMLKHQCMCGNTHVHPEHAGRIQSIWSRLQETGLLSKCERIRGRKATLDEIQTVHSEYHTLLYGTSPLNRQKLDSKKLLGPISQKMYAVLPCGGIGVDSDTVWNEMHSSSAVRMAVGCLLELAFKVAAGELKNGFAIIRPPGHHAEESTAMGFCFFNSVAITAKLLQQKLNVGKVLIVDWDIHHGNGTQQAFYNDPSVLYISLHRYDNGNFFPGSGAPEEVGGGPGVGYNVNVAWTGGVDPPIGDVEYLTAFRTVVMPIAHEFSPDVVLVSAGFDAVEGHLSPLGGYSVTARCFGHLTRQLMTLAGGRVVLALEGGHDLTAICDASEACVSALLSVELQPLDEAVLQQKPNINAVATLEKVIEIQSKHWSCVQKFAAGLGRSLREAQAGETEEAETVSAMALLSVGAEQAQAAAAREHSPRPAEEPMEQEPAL
T6 sequence (Q9UKV0 whole entry): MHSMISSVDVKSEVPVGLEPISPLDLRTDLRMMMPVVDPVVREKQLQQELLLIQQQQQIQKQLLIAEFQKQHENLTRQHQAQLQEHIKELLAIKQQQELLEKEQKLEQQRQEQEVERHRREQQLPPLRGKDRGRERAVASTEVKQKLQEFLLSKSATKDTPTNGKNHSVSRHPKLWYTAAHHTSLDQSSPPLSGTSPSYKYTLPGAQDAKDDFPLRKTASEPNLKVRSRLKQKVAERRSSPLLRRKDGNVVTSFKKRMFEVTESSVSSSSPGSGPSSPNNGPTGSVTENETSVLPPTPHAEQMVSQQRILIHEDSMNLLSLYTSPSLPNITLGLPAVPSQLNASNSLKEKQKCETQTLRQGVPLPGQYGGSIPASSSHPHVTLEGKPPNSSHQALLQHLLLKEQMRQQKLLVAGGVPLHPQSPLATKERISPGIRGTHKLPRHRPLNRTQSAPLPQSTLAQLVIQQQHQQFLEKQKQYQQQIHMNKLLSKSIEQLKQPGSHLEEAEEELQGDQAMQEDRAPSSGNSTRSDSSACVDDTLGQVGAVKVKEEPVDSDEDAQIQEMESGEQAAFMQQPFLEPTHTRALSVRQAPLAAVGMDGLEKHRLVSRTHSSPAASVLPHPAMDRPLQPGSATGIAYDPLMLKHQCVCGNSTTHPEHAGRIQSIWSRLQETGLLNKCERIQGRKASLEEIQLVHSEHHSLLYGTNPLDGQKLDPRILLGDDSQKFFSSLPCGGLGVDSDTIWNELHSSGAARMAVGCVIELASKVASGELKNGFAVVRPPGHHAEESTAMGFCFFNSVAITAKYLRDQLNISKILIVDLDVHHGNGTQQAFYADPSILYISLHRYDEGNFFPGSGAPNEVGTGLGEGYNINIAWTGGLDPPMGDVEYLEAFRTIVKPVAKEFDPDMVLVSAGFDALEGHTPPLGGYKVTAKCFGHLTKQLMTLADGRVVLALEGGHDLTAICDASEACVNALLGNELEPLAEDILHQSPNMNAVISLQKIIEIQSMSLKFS

inhibition at 1 µM (human HDAC3/NCOR1; read-out: HDAC3 % inhibition @ 1 µM)	SMILES	IC50 (human HDAC1)	IC50 (human HDAC2)	IC50 (human HDAC4)	IC50 (human HDAC5)	IC50 (human HDAC9)	IC50 (human HDAC11)	induction of early and late apoptosis (MV4-11 cells; MV4-11 cells)	viability at 48 h, 50 µM (in vitro)	IC50 (human HDAC3/NCOR1; 3 nM HDAC3, 20 µM substrate, 30 min, 37 °C)	IC50 (MV4-11 cells; MV4-11, 48 h, read-out: IC50 (apoptosis, annexin-V/PI))	IC50 (MV4-11 cells; MV4-11 cells, 24 h, annexin-V/PI, read-out: IC50 for apoptosis induction)	IC50 (MV4-11 cells; MV4-11 cells, after 48 h, read-out: IC50 values for growth inhibition)	fold more effective than MS-275 (apoptosis induction) (MV4-11 cells; MV4-11 cells, versus MS-275)
0%	Cn1cc(CCN2CCN(c3cnc(C(=O)Nc4cc(-c5cccs5)ccc4N)cn3)CC2)c2ccccc21 [21a, N-(2-Amino-5-(thiophen-2-yl)phenyl)-5-(4-(2-(1-methyl-1H-indol-3-yl)ethyl)piperazin-1-yl)pyrazine-2-carboxamide]	0.26 ± 0.01 µM	2.47 ± 0.22 µM	> 20 µM	> 20 µM	> 20 µM	7.5 ± 1 µM	slightly increased the number of MV4-11 cells in late apoptosis	94.4%					
	Nc1ccccc1NC(=O)c1cnc(N2CCN(Cc3c[nH]c4ccccc34)CC2)cn1 [19f, 5-(4-((1H-indol-3-yl)methyl)piperazin-1-yl)-N-(2-aminophenyl)pyrazine-2-carboxamide]	0.13 ± 0.01 µM	0.28 ± 0.01 µM	> 20 µM	> 20 µM	> 20 µM	> 20 µM	early and late apoptosis in nearly the whole MV4-11 cell population	76.1%	0.31 ± 0.01 µM	194 nM	255 nM	~300 nM	at least 4 fold
